Columns and labels:
Experiment in all cases: Metabolism of compound (II) by a microorganism
Type in all cases: in vitro ADME
Conditions in all cases: compound (II) at 100 ppm, 7 to 8 days at 30° C.
[1] = system: Streptomyces catenulae IFO12848
Protocol: (§1) The HPLC for content analysis in Examples 1, 41 and 42 and fraction purification of the compound was conducted under the conditions shown below.
(§2) The various microorganisms shown in Tables 1 and 2 were grown in ISP2 agar medium (1.0% (w/v) malt extract, 0.4% (w/v) yeast extract, 0.4% (w/v) glucose, 2.0% (w/v) agar, pH 7.3). A “loopful” of the each microorganism was added to TGY medium (0.5% (w/v) tryptone, 0.5% (w/v) yeast extract, 0.1% (w/v) glucose, 0.01% (w/v) KH2PO4, pH 7.0) and incubated with shaking at 30° C. for 2 to 4 days. One-tenth milliliter (0.1 ml) of the obtained culture was incubated with shaking in 3 ml of sporulation medium (0.1% (w/v) of meat extract, 0.2% (w/v) tryptose, 1% glucose, pH 7.1) containing compound (II) at 100 ppm for 7 to 8 days at 30° C. Fifty microliters (50 μl) of 2N HCl was added to the resulting culture and this was extracted with 3 ml of ethyl acetate. The obtained ethyl acetate layer was analyzed on the HPLC. The concentration of compound (II) was reduced (column retention time of 23.9 minutes) and new peaks were detected for compounds at retention times of 21.6 minutes and 22.2 minutes (each referred to as metabolite (I) and metabolite (II)).

[2] = system: Streptomyces sp. SANK62585
Protocol: as §1, §2

[3] = system: Streptomyces argenteolus var. toyon ATCC21468t
Protocol: as §1, §2

[4] = system: Streptomyces achromogenes IFO12735
Protocol: as §1, §2

[5] = system: Streptomyces cacaoiasoensis IFO13813
Protocol: as §1, §2

[6] = system: Streptomyces griseus ATCC10137
Protocol: as §1, §2

[7] = system: Streptomyces fimicarius ATCC21900
Protocol: as §1, §2

[8] = system: Streptomyces griseus IFO3102
Protocol: as §1, §2

[9] = system: Streptomyces roseochromogenes ATCC13400t
Protocol: as §1, §2

[10] = system: Streptomyces thermocoerulescens IFO14273t
Protocol: as §1, §2

[11] = system: Streptomyces afghaniensis IFO12831
Protocol: as §1, §2

[12] = system: Streptomyces phaeochromogenes IFO12898
Protocol: as §1, §2

[13] = system: Streptomyces scabies IFO3111
Protocol: as §1, §2

[14] = system: Streptomyces griseus ATCC12475
Protocol: as §1, §2

[15] = system: Streptomyces roseochromogenes ATCC13400
Protocol: as §1, §2

[16] = system: Streptomyces kasugaensis ATCC15714
Protocol: as §1, §2

[17] = system: Streptomyces chartreusis ATCC21901
Protocol: as §1, §2

[18] = system: Streptomyces argenteolus var. toyonakensis ATCC21468
Protocol: as §1, §2

[19] = system: Streptomyces griseus ATCC15395
Protocol: as §1, §2

[20] = system: Streptomyces griseochromogenes ATCC14511
Protocol: as §1, §2

[21] = system: Streptomyces globisporus subsp. globisporus ATCC21903
Protocol: as §1, §2

[22] = system: Streptomyces testaceus ATCC21469
Protocol: as §1, §2

[23] = system: Streptomyces griseolus ATCC11796
Protocol: as §1, §2

[24] = system: Streptomyces griseofuscus IFO12870t
Protocol: as §1, §2

[25] = system: Streptomyces erythreus ATCC11635
Protocol: as §1, §2

[26] = system: Streptomyces ornatus IFO13069t
Protocol: as §1, §2

[27] = system: Streptomyces nogalater IFO13445
Protocol: as §1, §2

[28] = system: Streptomyces lavendulae ATCC11924
Protocol: as §1, §2

[29] = system: Streptomyces rimosus ATCC10970
Protocol: as §1, §2

[30] = system: Streptomyces griseus ATCC11429
Protocol: as §1, §2

[31] = system: Saccharopolyspora taberi JCM9383T
Protocol: as §1, §2

[32] = system: Streptomyces kasugaensis IFO13851
Protocol: as §1, §2

[33] = system: Streptomyces lydicus IFO13058
Protocol: as §1, §2

[34] = system: Streptomyces hachijoensis IFO12782
Protocol: as §1, §2

[35] = system: Streptomyces purpurascens ATCC25489
Protocol: as §1, §2

[36] = system: Streptomyces roseochromogenus ATCC21895
Protocol: as §1, §2

For C[C@@H](Oc1cc(-n2c(=O)cc(C(F)(F)F)n(C)c2=O)c(F)cc1Cl)C(=O)O [compound (II)], the “concentration of compound (II)” value [1] was 85.3 ppm, the “concentration of compound (II)” value [2] was 54.6 ppm and the “concentration of compound (II)” value [3] was 90.1 ppm. For the same compound, the “concentration of compound (II)” value [4] was 0.0 ppm, the “concentration of compound (II)” value [5] was 77.8 ppm and the “concentration of compound (II)” value [6] was 65.6 ppm. For the same compound, the “concentration of compound (II)” value [7] was 46.5 ppm, the “concentration of compound (II)” value [8] was 22.6 ppm and the “concentration of compound (II)” value [9] was 71.8 ppm. For the same compound, the “concentration of compound (II)” value [10] was 51.7 ppm, the “concentration of compound (II)” value [11] was 80.6 ppm and the “concentration of compound (II)” value [12] was 46.4 ppm. For the same compound, the “concentration of compound (II)” value [13] was 88.3 ppm, the “concentration of compound (II)” value [14] was 51.1 ppm and the “concentration of compound (II)” value [15] was 81.9 ppm. The “concentration of compound (II)” value [16] was 92.4 ppm, the “concentration of compound (II)” value [17] was 61.1 ppm and the “concentration of compound (II)” value [18] was 13.0 ppm. For the same compound, the “concentration of compound (II)” value [19] was 75.2 ppm, the “concentration of compound (II)” value [20] was 53.9 ppm and the “concentration of compound (II)” value [21] was 79.9 ppm. For the same compound, the “concentration of compound (II)” value [22] was 18.4 ppm, the “concentration of compound (II)” value [23] was 0 ppm and the “concentration of compound (II)” value [24] was 49.5 ppm. For the same compound, the “concentration of compound (II)” value [25] was 54.6 ppm, the “concentration of compound (II)” value [26] was 65.3 ppm and the “concentration of compound (II)” value [27] was 12.8 ppm. For the same compound, the “concentration of compound (II)” value [28] was 89.6 ppm, the “concentration of compound (II)” value [29] was 70.9 ppm and the “concentration of compound (II)” value [30] was 30.3 ppm. For the same compound, the “concentration of compound (II)” value [31] was 82.9 ppm, the “concentration of compound (II)” value [32] was 66.3 ppm and the “concentration of compound (II)” value [33] was 62.0 ppm. The “concentration of compound (II)” value [34] was 83.9 ppm, the “concentration of compound (II)” value [35] was 70.9 ppm and the “concentration of compound (II)” value [36] was 74.2 ppm.

— US8293979B2, “Weed controller metabolism proteins, genes, thereof and use of the same” (Sumitomo Chemical Company, Limited, priority 2001, dated 2012)
